Publication PMC7486443, “Generation of Phenothiazine with Potent Anti-TLK1 Activity for Prostate Cancer Therapy” (iScience, 2020)

What was measured:
Assay in all cases: biochemical
Design in all cases: DiscoverX KINOMEscan scanMAX competition binding panel, single concentration, percent of control; remaining binding: dose or concentration left out as unconfirmed
Settings in all cases: KINOMEscan binding, percent of control; read-out: Table S4_SCANMAX REPORT - related to Fig. 1 / Percent Control
ASK2 = molecular target: T1, ASK2 (Homo sapiens, UniProt O95382)
T1 construct: gene MAP3K6

CAMKK2 = CAMKK2 (Homo sapiens, UniProt Q96RR4)
CDK2 = CDK2 (Homo sapiens, UniProt P24941)
CDK3 = CDK3 (Homo sapiens, UniProt Q00526)
CDK4-cyclinD3 = molecular target: T2, CDK4-cyclinD3 (Homo sapiens, UniProt P11802)
T2 construct: cyclinD3

CSNK1G1 = CSNK1G1 (Homo sapiens, UniProt Q9HCP0)
DYRK2 = DYRK2 (Homo sapiens, UniProt Q92630)
EGFR(L858R,T790M) = EGFR(L858R,T790M) (Homo sapiens, UniProt P00533, L858R/T790M)
MARK1 = MARK1 (Homo sapiens, UniProt Q9P0L2)
MARK2 = MARK2 (Homo sapiens, UniProt Q7KZI7)
PLK4 = PLK4 (Homo sapiens, UniProt O00444)
PRKCE = PRKCE (Homo sapiens, UniProt Q02156)
[1] = molecular target: T3, RPS6KA5(Kin.Dom.2-C-terminal) (Homo sapiens, UniProt O75582)
T3 construct: Kin.Dom.2-C-terminal

STK16 = STK16 (Homo sapiens, UniProt O75716)
SgK110 = molecular target: T4, SgK110 (Homo sapiens, UniProt P0C264)
T4 construct: gene SBK3

TLK2 = TLK2 (Homo sapiens, UniProt Q86UE8)
TRKA = molecular target: T5, TRKA (Homo sapiens, UniProt P04629)
T5 construct: gene NTRK1

ULK3 = ULK3 (Homo sapiens, UniProt Q6PHR2)

CAMKK2, sequence (Q96RR4 whole entry): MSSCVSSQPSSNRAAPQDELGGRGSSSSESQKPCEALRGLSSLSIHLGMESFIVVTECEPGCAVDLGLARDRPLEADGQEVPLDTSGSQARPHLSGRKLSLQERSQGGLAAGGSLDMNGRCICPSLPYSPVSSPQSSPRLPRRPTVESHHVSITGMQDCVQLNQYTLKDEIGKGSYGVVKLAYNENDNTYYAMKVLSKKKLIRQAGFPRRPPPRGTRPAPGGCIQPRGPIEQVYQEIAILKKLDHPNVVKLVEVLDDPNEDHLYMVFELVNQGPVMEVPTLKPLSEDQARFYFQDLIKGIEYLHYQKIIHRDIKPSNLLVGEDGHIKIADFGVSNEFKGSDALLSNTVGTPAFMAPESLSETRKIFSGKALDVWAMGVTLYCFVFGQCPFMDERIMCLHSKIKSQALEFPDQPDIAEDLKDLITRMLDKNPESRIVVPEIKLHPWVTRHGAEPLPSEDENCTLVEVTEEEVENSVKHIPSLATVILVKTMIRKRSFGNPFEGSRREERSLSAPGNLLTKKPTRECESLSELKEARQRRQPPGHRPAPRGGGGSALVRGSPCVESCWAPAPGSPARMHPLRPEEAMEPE
CDK3, sequence (Q00526 whole entry): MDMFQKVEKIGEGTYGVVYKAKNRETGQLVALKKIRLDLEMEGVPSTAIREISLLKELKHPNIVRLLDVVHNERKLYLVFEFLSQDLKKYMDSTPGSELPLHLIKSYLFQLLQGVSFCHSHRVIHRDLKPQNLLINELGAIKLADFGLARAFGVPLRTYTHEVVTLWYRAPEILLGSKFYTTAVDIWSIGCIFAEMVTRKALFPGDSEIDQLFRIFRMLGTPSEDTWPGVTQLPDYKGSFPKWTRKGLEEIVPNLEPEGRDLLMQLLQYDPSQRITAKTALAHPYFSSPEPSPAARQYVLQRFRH
PRKCE, sequence (Q02156 whole entry): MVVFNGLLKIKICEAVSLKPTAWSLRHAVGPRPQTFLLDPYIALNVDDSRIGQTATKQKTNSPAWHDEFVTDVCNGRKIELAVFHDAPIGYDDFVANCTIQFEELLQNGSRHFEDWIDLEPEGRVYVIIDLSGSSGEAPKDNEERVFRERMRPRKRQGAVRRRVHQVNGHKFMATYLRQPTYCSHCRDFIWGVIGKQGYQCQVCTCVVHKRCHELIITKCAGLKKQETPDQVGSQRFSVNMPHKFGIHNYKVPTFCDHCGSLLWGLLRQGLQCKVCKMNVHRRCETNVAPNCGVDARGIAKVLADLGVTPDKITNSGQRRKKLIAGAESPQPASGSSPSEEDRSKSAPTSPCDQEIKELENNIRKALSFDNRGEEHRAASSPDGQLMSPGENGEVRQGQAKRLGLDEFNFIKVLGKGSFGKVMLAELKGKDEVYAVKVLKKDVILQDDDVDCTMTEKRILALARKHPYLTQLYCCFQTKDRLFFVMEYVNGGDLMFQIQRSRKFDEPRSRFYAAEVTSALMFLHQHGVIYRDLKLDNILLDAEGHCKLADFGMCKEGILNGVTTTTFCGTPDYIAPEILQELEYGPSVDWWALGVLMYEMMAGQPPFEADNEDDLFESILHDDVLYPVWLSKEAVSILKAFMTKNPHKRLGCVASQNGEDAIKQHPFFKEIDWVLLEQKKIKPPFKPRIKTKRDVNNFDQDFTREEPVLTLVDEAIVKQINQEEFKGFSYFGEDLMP
T2 sequence (P11802 whole entry): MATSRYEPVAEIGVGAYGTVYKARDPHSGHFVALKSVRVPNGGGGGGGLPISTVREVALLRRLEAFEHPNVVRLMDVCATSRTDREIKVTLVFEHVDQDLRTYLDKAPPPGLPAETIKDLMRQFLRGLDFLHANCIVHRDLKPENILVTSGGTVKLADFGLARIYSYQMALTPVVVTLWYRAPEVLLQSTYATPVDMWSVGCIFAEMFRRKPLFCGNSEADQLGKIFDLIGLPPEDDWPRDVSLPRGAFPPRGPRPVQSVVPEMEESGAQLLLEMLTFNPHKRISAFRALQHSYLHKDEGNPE
T2 sequence (P30281 whole entry partner): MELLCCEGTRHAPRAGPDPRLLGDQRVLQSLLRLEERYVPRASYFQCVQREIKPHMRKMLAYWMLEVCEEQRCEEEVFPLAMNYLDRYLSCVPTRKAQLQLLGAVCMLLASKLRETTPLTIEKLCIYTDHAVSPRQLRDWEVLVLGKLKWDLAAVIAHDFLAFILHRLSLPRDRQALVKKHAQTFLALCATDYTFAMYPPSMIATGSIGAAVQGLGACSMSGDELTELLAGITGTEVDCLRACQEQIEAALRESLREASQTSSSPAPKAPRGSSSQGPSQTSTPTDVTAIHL
STK16, sequence (O75716 whole entry): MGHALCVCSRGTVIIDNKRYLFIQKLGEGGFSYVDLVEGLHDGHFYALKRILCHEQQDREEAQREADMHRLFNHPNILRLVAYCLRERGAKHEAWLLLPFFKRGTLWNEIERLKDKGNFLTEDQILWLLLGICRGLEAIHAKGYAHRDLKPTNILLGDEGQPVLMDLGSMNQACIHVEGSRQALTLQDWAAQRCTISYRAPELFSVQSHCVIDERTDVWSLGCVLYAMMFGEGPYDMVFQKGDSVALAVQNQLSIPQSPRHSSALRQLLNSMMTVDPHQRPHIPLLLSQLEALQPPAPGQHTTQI
T1 sequence (O95382 whole entry): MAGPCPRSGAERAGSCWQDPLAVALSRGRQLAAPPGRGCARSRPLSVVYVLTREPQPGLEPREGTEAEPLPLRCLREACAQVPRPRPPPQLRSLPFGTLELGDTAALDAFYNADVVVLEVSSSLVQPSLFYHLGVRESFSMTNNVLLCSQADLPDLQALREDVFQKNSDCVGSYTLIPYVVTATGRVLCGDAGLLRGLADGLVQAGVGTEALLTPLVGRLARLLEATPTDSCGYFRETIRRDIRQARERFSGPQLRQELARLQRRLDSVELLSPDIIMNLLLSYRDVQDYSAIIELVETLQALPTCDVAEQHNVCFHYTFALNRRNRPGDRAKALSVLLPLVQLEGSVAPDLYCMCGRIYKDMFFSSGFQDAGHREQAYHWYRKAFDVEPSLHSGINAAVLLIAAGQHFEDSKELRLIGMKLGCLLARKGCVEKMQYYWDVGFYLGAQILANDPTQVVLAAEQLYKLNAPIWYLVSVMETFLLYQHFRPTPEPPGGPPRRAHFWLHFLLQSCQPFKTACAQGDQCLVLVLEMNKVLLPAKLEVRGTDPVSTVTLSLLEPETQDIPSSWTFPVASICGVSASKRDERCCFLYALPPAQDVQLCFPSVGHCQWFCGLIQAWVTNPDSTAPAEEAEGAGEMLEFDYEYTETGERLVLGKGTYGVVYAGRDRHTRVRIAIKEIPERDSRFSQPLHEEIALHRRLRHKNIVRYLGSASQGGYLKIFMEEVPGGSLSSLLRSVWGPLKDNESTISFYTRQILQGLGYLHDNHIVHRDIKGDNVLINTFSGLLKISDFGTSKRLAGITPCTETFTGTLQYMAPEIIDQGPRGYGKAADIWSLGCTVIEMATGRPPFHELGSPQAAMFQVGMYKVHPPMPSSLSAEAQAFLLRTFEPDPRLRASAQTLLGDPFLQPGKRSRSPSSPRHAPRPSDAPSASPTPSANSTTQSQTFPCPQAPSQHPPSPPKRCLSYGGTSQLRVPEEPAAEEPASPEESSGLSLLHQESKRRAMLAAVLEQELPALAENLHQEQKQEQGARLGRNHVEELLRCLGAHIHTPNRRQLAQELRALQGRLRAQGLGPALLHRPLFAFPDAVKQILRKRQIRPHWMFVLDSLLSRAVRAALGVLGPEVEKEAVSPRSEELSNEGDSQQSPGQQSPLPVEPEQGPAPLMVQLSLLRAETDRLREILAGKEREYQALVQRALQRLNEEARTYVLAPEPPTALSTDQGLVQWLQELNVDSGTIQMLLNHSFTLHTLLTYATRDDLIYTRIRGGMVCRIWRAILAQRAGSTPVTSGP
T3 sequence (O75582 whole entry): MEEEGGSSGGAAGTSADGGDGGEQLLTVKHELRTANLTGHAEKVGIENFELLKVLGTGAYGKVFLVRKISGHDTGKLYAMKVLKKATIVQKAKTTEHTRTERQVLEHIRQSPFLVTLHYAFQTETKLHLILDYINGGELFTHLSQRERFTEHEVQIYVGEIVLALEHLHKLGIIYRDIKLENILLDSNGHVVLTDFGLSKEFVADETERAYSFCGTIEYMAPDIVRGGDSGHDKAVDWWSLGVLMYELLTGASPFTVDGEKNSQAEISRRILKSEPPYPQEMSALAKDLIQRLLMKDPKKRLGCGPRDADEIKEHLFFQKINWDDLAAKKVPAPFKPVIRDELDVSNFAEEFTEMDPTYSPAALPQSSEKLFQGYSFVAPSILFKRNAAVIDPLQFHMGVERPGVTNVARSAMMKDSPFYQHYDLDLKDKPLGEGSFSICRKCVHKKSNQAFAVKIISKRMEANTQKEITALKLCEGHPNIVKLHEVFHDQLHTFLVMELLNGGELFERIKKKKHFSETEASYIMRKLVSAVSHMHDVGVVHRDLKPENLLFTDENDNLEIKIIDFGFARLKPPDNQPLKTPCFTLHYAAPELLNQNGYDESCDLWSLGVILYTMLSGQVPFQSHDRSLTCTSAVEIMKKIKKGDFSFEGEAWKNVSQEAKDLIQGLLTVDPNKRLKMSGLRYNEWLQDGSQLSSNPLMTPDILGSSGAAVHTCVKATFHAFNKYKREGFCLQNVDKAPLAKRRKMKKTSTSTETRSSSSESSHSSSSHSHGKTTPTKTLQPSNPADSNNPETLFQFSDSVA
T4 sequence (P0C264 whole entry): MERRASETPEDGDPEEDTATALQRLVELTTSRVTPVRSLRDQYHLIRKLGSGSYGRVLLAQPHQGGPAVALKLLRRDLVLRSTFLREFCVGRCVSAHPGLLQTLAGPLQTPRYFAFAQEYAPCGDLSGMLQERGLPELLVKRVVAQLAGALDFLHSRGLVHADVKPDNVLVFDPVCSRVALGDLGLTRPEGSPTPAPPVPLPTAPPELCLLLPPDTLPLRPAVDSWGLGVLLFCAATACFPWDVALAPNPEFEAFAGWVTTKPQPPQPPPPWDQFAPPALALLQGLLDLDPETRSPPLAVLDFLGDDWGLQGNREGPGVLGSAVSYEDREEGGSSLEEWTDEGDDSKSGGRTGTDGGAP

**Q.** How did the remaining binding (ASK2) turn out when `c1ccc2c(c1)Sc1ccccc1N2CCN1CCOCC1` [J54] was run?
**A.** 100%

**Q.** And the remaining binding (CAMKK2)?
**A.** 100%

**Q.** What about the remaining binding (CDK2) of the same compound?
**A.** 92%

**Q.** What about the remaining binding (CDK3) of the same compound?
**A.** 89%

**Q.** What about the remaining binding (CDK4-cyclinD3) of the same compound?
**A.** 98%

**Q.** What about the remaining binding (CSNK1G1) of the same compound?
**A.** 100%

**Q.** What about the remaining binding (DYRK2) of the same compound?
**A.** 83%

**Q.** And the remaining binding (EGFR(L858R,T790M))?
**A.** 100%

**Q.** And the remaining binding (MARK1)?
**A.** 94%

**Q.** And the remaining binding (MARK2)?
**A.** 99%

**Q.** What about the remaining binding (PLK4) of the same compound?
**A.** 85%

**Q.** And the remaining binding (PRKCE)?
**A.** 100%

**Q.** What about the remaining binding [1] of the same compound?
**A.** 100%

**Q.** And the remaining binding (STK16)?
**A.** 99%

**Q.** What about the remaining binding (SgK110) of the same compound?
**A.** 100%

**Q.** And the remaining binding (TLK2)?
**A.** 23%

**Q.** And the remaining binding (TRKA)?
**A.** 82%

**Q.** And the remaining binding (ULK3)?
**A.** 79%
